Results as given in ChEMBL document CHEMBL5385921, “Kagimminols A and B, Cembrene-Type Diterpenes from an Okeania sp. Marine Cyanobacterium” (J Nat Prod, 2024).
Where a name gives a salt, the structure may show the parent alone.

Tests used:
[1] = tested on: Trypanosoma brucei rhodesiense; experiment: Antitrypanosomal activity against blood stream form of Trypanosoma brucei rhodesiense IL-1501 assessed as growth inhibition incubated for 69 hrs by alamar blue staining based microplate fluorescence scanner analysis; type: functional, organism-based; conditions: IL-1501, 69 h
HeLa = experiment: Antiproliferative activity against human HeLa cells assessed as inhibition of cell growth incubated for 72 hrs by MTT assay; type: functional, cell-based

## CC(=O)O[C@H]1C[C@](C)(O)C(=O)/C=C(\O)[C@](C)(O)CCC/C(C)=C/C=C\1C(C)C
[1]
  IC50: 3.4 µM
HeLa
  IC50: > 30 µM

## C/C1=C\C=C(\C(C)C)[C@@H](O)C[C@](C)(O)C(=O)CC/C(C)=C/CC1
[1]
  IC50: 10 µM
HeLa
  IC50: > 30 µM

## COc1cccc2c1C(=O)c1c(O)c3c(c(O)c1C2=O)C[C@@](O)(C(=O)CO)C[C@@H]3O[C@H]1C[C@H](N)[C@H](O)[C@H](C)O1 [DOXORUBICIN HYDROCHLORIDE]
HeLa
  IC50: 0.5 µM
